These results are taken from patent US6107034A, “GATA-3 expression in human breast carcinoma” (The Board of Trustees of the Leland Stanford Junior …, priority 1998, dated 2000).

One data set relates to MCF7 cells. In words: Northern blot of MCF7 cells in the presence and absence of β-estradiol. The settings on record: 1×10^-8 M β-estradiol for three days. Format: cell-based, human. On the procedure: All cell lines were obtained from American Type Culture Collection (ATCC, Rockville, Md.) and were maintained as described previously. MCF7 cells that were induced with estradiol were grown under normal conditions until approximately 25% confluence. The media was subsequently changed to phenol-red free Minimal Essential Media (Gibco BRL, Gaithersburg, Md.) supplemented with 10% charcoal-stripped fetal calf serum, 10 U/ml penicillin G, 10 μg/ml streptomycin, 6 ng/ml bovine insulin for six days. MCF7 cells were induced with 1×10^-8 M water soluble β-estradiol (Sigma Chemical Company, St. Louis, Mo.) for three days.
Poly(A+)mRNA was isolated from breast carcinoma cell lines and analyzed by Northern blot as described previously (Carmeci et al. (1997) Genomics 45, 607-617). The GATA-3 cDNA probe was prepared by reverse transcribing 1.6 μg of MCF7 poly(A)+RNA using the GeneAmp® RNA PCR Kit (Perkin Elmer, Foster City, Calif.) as per the manufacturer's recommendations. Resultant cDNA was used as template to PCR amplify (GeneAmp® PCR Kit, Perkin Elmer) the region of the GATA-3 cDNA from +530 to +1712 (numbered in accordance with the GATA-3 cDNA sequence, Genbank accession number X55122) using primers GATA3-2 (SEQ ID NO:3) [5-[…]-3'] and GATA3-4 (SEQ ID NO:4) [5'-[…]-3']. […]

In the next data set the test system is free GATA-3. Description: Gel retardation assay, free GATA-3 binding to GATA DNA probe. The arrangement: species or system human. The settings on record: 1 μM, gel shift. The text has this:
Acids Res 11, 1475-1489. […] (Santa Cruz Biotechnology) was also used as a competitor.

Another data set deals with GATA-3 (TnT-GATA3) (Homo sapiens, UniProt P23771 P23771:1-443). In words: competition; mutant cold competitor at 100-fold molar excess; text states only appropriate sequence specificity by gel shift competition. The settings on record: tags: none stated. On the procedure:
Acids Res* 11, 1475–1489. […] (Santa Cruz Biotechnology) was also used as a competitor.
It was important to determine if functional GATA-3 protein is expressed in these cells. The GATA-3 cDNA was cloned from the MCF7 cells and GATA-3 protein was expressed using in vitro transcription/translation. […] MCF7 nuclear extracts were also tested for GATA binding activity.
For orientation: In EMSA bound probe runs differently from free probe, usually more slowly.

Sequence of GATA-3 (TnT-GATA3) (P23771 whole entry, one chain of several): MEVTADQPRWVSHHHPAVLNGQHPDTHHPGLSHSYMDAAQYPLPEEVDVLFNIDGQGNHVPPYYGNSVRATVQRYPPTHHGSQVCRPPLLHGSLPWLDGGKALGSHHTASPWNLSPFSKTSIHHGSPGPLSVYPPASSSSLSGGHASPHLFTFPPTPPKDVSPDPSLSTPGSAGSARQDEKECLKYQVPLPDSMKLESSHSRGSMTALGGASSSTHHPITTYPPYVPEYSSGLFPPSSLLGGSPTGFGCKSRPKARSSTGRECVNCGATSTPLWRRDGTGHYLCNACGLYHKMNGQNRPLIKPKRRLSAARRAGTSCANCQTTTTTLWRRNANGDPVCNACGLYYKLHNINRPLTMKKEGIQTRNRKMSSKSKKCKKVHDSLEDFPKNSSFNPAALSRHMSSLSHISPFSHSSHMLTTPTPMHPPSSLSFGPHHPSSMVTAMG

As for `C[C@]12CC[C@@H]3c4ccc(O)cc4CC[C@H]3[C@@H]1CC[C@@H]2O` [estradiol, β-estradiol], in the data set on MCF7 cells, the “expression of GATA-3 mRNA” value was “did not change” and the “pS2 expression (mRNA)” value is recorded as “induced”.

In the case of `CC/C(=C(\c1ccccc1)c1ccc(OCCN(C)C)cc1)c1ccccc1` [tamoxifen], the “interference with free GATA-3 binding DNA” value with free GATA-3 is reported as “does not interfere with free GATA-3 binding DNA”.

B1: mutant GATA oligonucleotide (dsDNA)
DNA 1: CACTTCTTAACAGAAAGTCTTAACTCT
DNA 2: AGAGTTAAGACTTTCTGTTAAGAAGTG
modifications: [NONE]
As for B1, the binding result in the data set with GATA-3 (TnT-GATA3) is “no binding”.
